According to publication PMC4744088 (Journal of biomolecular screening, 2015):

Experiment: "true hits" assay alpha screen signal
Details: indicates false positive

Compound: Nc1c(S(=O)(=O)O)cc(Nc2ccc(Nc3nc(Cl)nc(Nc4cccc(S(=O)(=O)O)c4)n3)c(S(=O)(=O)O)c2)c2c1C(=O)c1ccccc1C2=O [Reactive blue 2]
- inhibition of the "true hits" assay alpha screen signal: greater than 50%
